The target in assay [1] is T1, JAK3 (Homo sapiens, UniProt P52333).
T1 sequence (P52333 1-1124): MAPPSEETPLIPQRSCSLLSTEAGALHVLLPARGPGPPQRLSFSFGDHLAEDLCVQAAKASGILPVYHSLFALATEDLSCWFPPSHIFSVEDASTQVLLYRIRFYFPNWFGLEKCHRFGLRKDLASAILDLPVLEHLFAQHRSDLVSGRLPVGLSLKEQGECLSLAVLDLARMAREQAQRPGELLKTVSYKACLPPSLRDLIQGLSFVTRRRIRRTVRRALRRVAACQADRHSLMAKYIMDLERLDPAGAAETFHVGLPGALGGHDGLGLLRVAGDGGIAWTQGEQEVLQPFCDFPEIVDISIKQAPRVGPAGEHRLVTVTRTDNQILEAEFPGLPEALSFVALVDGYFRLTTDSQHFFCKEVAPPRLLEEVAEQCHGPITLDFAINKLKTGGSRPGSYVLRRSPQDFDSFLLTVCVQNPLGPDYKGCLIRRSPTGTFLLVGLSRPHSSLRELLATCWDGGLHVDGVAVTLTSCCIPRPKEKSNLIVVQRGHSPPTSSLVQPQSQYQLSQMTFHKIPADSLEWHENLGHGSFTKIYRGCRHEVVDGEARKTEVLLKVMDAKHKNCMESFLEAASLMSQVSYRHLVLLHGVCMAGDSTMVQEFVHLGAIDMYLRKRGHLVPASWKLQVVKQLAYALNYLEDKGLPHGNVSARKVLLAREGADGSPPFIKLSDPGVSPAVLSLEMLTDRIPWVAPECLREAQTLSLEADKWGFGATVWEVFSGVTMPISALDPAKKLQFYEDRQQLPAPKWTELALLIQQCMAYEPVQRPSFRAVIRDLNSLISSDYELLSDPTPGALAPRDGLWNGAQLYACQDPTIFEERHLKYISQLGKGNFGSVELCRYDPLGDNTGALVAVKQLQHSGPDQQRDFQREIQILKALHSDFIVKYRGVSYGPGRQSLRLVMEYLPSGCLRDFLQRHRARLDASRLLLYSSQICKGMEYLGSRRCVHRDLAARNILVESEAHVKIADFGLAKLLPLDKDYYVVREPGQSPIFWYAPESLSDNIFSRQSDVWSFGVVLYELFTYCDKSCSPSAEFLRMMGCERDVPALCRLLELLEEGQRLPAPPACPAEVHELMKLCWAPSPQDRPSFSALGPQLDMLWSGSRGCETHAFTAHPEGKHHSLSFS
The assay can be described thus: KinaseProfiler kinase assay, positive control. The assay is classed as biochemical.

Assay [2] concerns the target T1, JAK3.
Assay [3] addresses T1, JAK3. The assay can be described thus: radiometric KinaseProfiler assay with ATP titration (Ki; IC50 […]); also JAK3 immunoprecipitate kinase assay. Format: biochemical.
The next assay addresses TYK2 (Homo sapiens, UniProt P29597). Description: radiometric KinaseProfiler kinase assay, […] ATP. The assay is classed as biochemical.
For a further assay, the target named is JAK2 (Homo sapiens, UniProt O60674). Description: radiometric KinaseProfiler kinase assay, […] ATP. Format: biochemical.
Another assay deals with JAK1 (Homo sapiens, UniProt P23458). Description: radiometric KinaseProfiler kinase assay, […] ATP. The assay is classed as biochemical.

What is called Km is the substrate concentration at which the rate is half of its maximum. One may read the Ki as the equilibrium dissociation constant of an inhibitor or competing ligand from its target. A lower Ki goes with higher affinity. Usually IC50 stands for the concentration at which inhibition is half-maximal. A high value points to weaker potency in that assay.

Sequence of JAK2 (O60674 whole entry): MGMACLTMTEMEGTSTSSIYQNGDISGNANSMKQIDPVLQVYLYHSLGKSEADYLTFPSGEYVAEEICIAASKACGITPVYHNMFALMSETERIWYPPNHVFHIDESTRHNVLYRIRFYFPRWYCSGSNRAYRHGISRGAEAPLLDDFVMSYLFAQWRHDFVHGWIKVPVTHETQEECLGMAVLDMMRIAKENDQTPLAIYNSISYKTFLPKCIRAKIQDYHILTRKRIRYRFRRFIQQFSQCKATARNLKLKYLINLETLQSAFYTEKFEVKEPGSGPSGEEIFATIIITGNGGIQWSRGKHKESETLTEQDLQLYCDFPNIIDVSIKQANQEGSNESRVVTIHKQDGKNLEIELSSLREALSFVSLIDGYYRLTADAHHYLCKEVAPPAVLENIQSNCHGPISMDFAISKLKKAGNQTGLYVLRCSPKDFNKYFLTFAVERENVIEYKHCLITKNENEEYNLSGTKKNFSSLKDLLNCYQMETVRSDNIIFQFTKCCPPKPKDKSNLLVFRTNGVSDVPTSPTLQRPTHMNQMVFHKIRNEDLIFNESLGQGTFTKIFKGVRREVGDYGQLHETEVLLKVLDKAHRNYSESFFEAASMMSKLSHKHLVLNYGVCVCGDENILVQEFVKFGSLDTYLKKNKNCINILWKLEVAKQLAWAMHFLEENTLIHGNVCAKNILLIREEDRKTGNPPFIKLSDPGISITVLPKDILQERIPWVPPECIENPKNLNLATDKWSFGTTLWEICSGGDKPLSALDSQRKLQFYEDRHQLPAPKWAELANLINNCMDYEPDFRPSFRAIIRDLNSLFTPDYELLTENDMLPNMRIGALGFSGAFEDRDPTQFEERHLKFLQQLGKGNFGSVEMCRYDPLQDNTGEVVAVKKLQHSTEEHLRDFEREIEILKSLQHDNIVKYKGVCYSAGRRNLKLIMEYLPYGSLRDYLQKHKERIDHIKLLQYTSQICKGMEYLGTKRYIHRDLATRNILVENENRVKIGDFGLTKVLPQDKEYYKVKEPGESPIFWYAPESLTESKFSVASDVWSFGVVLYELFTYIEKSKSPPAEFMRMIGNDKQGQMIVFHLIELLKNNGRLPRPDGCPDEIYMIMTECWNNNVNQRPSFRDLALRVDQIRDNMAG
Sequence of JAK1 (P23458 whole entry): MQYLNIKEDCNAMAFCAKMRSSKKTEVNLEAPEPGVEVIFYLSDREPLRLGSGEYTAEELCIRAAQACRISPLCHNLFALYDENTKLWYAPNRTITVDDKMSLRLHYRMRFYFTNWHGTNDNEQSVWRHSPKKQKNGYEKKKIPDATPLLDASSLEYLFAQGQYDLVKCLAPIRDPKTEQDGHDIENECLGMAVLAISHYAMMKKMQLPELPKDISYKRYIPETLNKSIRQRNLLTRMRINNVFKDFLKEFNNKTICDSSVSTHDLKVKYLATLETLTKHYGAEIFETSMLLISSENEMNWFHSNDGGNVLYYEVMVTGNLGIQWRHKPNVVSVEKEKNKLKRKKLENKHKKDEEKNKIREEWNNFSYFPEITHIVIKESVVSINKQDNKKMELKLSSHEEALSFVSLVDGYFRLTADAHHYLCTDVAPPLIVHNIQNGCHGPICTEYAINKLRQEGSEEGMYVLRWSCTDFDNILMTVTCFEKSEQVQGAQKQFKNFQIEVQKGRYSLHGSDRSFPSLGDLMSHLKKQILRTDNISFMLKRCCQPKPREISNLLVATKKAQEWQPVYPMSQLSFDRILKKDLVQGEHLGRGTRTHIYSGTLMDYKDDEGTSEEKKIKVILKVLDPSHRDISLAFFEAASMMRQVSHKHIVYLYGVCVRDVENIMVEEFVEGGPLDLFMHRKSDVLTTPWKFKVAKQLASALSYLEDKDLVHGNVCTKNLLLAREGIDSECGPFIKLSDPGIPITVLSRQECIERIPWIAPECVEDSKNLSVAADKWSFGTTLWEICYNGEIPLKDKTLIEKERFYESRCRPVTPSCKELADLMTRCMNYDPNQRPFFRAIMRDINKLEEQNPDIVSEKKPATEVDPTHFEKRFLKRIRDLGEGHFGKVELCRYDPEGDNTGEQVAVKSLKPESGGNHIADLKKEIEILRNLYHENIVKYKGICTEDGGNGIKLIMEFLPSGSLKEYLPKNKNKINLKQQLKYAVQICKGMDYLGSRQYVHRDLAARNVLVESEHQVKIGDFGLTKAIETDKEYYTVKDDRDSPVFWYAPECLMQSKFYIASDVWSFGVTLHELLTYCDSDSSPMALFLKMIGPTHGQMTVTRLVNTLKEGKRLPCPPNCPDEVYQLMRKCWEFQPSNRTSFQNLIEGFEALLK
Sequence of TYK2 (P29597 whole entry): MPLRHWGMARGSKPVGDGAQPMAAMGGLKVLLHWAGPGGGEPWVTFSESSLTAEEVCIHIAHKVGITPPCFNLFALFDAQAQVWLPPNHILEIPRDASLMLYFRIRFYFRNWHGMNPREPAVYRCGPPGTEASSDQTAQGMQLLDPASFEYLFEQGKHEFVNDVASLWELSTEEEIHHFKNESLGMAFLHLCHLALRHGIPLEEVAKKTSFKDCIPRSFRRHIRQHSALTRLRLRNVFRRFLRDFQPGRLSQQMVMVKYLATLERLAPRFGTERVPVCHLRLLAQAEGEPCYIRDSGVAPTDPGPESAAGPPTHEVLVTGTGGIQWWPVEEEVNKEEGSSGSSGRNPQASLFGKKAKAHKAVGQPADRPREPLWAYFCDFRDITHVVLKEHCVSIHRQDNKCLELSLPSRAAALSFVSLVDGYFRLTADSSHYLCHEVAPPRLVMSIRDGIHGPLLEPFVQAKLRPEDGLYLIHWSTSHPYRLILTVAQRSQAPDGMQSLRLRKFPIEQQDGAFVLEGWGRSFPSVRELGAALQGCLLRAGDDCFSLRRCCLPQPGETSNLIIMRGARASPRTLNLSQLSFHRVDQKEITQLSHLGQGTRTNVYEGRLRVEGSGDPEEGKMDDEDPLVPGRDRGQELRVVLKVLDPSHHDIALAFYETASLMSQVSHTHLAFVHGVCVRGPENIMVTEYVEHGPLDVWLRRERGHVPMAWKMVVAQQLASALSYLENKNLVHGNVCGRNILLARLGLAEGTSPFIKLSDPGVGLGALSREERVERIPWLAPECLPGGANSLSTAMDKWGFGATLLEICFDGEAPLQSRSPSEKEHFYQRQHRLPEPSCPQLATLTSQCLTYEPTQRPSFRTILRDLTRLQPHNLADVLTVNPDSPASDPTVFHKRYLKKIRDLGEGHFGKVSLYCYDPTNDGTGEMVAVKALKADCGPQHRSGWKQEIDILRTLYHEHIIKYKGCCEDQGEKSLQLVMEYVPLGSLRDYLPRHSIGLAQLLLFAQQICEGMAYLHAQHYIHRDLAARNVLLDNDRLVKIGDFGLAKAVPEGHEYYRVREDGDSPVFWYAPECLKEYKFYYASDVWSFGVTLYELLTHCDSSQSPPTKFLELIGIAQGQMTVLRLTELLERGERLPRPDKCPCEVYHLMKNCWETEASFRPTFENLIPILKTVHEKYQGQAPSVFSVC

With `CN[C@@H]1C[C@H]2O[C@@](C)([C@@H]1OC)n1c3ccccc3c3c4c(c5c6ccccc6n2c5c31)C(=O)NC4` [staurosporine], at JAK3 [1], the “KinaseProfiler kinase assay, positive control” value is recorded as “Staurosporine was used as a positive control for ATP‐competitive inhibition of JAKs”.

For the compound `Nc1ncnc2c1ncn2[C@@H]1O[C@H](COP(=O)(O)OP(=O)(O)OP(=O)(O)O)[C@@H](O)[C@H]1O` [ATP], the Km at JAK3 [2] is 212 ± 25.7 µM.

`CC[C@H]1CN2CCc3cc(OC)c(OC)cc3[C@@H]2C[C@@H]1C[C@H]1NCCc2c1[nH]c1ccc(O)cc21` [tubulosine]: on JAK3 [3], the Ki was 12.9 ± 1.3 nM. Further, the IC50 against TYK2 is 76.3 nM; against JAK2, 84.9 nM; against JAK1, 69.5 nM.

Values taken from publication PMC7339168 (Journal of Cellular and Molecular Medicine, 2020).
